For 28 compounds, IC50 results are on record in US20250346602A1, “LACTAM SUBSTITUTED IMIDAZOPYRIDAZINE IL-17A MODULATORS AND USES THEREOF” (DICE ALPHA, INC., priority 2022, published 2025).

A word on the IC50: it is the midpoint of a concentration-inhibition curve.

In the assay the target is T1, IL-17A/A (Homo sapiens, UniProt Q16552).
T1 construct: purchased Genscript Z03228
T1 sequence (Q16552 24-155): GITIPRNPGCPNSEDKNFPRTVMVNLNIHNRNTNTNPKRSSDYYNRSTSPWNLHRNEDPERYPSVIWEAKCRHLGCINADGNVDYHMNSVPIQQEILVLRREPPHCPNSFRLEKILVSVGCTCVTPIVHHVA
The assay is described as follows: IL-17A/A HEK-Blue cell assay. The class given is cell-based. Conditions: HEK-Blue IL-17A reporter cell line (HEK 293), IL-17A/A stimulation, 20 hours incubation, SEAP read at A630. The method in brief:
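IC50 came from a 4-parameter fit of SEAP read at A630 (Quanti-Blue). Compound was titrated to a top final concentration of 10, 1 or 0.3 uM with 0.1% final DMSO and added just before IL-17A/A. Incubation lasted 20 hours in HEK293 cells engineered with IL-17RA, IL-17RC, Act1 and an NFκB-SEAP reporter.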

Each structure is given as a SMILES string. Some results are limits rather than exact numbers.

For the compound `CCn1nccc1C(=O)N[C@H](c1cn2nc(CC3C[C@@H](C(F)(F)F)CNC3=O)c(OC(C)C)cc2n1)C1CCC(F)(F)CC1` (stereo partly drawn) [Compound 185, N-((1S)-(4,4-difluorocyclohexyl)(7-isopropoxy-6-(((5R)-2-oxo-5-(trifluoromethyl)piperidin-3-yl)methyl)imidazo[1,2-b]pyridazin-2-yl)methyl)-1-ethyl-1H-pyrazole-5-carboxamide], the IC50 was under 100 nM.

With `CC[C@@H](c1ccc(F)cc1)[C@H](NC(=O)c1ccnn1CC)c1cn2nc(C[C@H]3C[C@@H](C(F)(F)F)NC3=O)ccc2n1` [Compound 22, 1-ethyl-N-((1S,2S)-2-(4-fluorophenyl)-1-(6-(((3R,5S)-2-oxo-5-(trifluoromethyl)pyrrolidin-3-yl)methyl)imidazo[1,2-b]pyridazin-2-yl)butyl)-1H-pyrazole-5-carboxamide], the IC50 is 100 to 1000 nM.

Consider `CCn1nccc1C(=O)N[C@H](c1cn2nc(CC3CCCNC3=O)ccc2n1)C1CCCCCC1` (single isomer, unassigned) [Compound 12], for which the IC50 was under 100 nM.

For the compound `CCn1nccc1C(=O)N[C@H](c1cn2nc(C[C@H]3C[C@@H](C(F)(F)F)CNC3=O)c(C#N)cc2n1)C1CCC(F)(F)CC1` [Compound 81], the IC50 lay in the range of 100 to 1000 nM.

With `Cn1nc(C(F)F)cc1C(=O)N[C@H](c1cn2nc(CC3C[C@@H](C(F)(F)F)CNC3=O)ccc2n1)C1CCC(F)(F)CC1` (stereo partly drawn) [Compound 129, N-((1S)-(4,4-difluorocyclohexyl)(6-(((5R)-2-oxo-5-(trifluoromethyl)piperidin-3-yl)methyl)imidazo[1,2-b]pyridazin-2-yl)methyl)-3-(difluoromethyl)-1-methyl-1H-pyrazole-5-carboxamide], the IC50 was over 1000 nM.

With `O=C(N[C@H](c1cn2nc(CC3C[C@@H](C(F)(F)F)CNC3=O)ccc2n1)C1CCC(F)(F)CC1)c1cnsn1` (stereo partly drawn) [Compound 132, N-((1S)-(4,4-difluorocyclohexyl)(6-(((5R)-2-oxo-5-(trifluoromethyl)piperidin-3-yl)methyl)imidazo[1,2-b]pyridazin-2-yl)methyl)-1,2,5-thiadiazole-3-carboxamide], the IC50 is over 1000 nM.

For the compound `CCc1nonc1C(=O)N[C@H](c1cn2nc(CC3C[C@@H](C(F)(F)F)CNC3=O)ccc2n1)[C@H]1CC[C@H](C)CC1` (stereo partly drawn) [Compound 141, 4-Ethyl-N-((1S)-((1R.4S)-4-methylcyclohexyl)(6-(((5R)-2-oxo-5-(trifluoromethyl)piperidin-3-yl)methyl)imidazo[1,2-b]pyridazin-2-yl)methyl)-1,2,5-oxadiazole-3-carboxamide], the IC50 was under 100 nM.

As for `CCn1nccc1C(=O)N[C@@H](c1cn2nc(CC3C[C@@H](C(F)(F)F)CNC3=O)ccc2n1)[C@@H]1C[C@H]2C[C@H]2C1` (stereo partly drawn) [Compound 171, N-((1R)-((1R,3S,5S)-bicyclo[3.1.0]hexan-3-yl)(6-(((5R)-2-oxo-5-(trifluoromethyl)piperidin-3-yl)methyl)imidazo[1,2-b]pyridazin-2-yl)methyl)-1-ethyl-1H-pyrazole-5-carboxamide], the IC50 was in the range of 100 to 1000 nM.

Regarding `CCn1nccc1C(=O)N[C@H](c1cn2nc(CC3C[C@@H](C(F)(F)F)NC3=O)ccc2n1)[C@H]1CC[C@H](C)CC1` (single isomer, unassigned) [Compound 16], the IC50 was in the range of 100 to 1000 nM.

For the compound `CCn1nccc1C(=O)N[C@H](c1cn2nc(CC3C[C@@H](C(F)(F)F)CNC3=O)c(C(F)(F)F)cc2n1)[C@H]1CC[C@H](C)CC1` (single isomer, unassigned) [Compound 79], the IC50 was over 1000 nM.

With `CC(C)n1nccc1C(=O)N[C@H](c1cn2nc(CC3C[C@@H](C(F)(F)F)CNC3=O)ccc2n1)[C@H]1CCCC(F)(F)C1` (stereo partly drawn) [Compound 148, N-((1S)—((S)-3,3-difluorocyclohexyl)(6-(((5R)-2-oxo-5-(trifluoromethyl)piperidin-3-yl)methyl)imidazo[1,2-b]pyridazin-2-yl)methyl)-1-isopropyl-1H-pyrazole-5-carboxamide], the IC50 is under 100 nM.

In the case of `Cn1c(C#N)ccc1C(=O)N[C@H](c1cn2nc(CC3C[C@@H](C(F)(F)F)CNC3=O)ccc2n1)C1CCC(F)(F)CC1` (stereo partly drawn) [Compound 133, 5-cyano-N-((1S)-(4,4-difluorocyclohexyl)(6-(((5R)-2-oxo-5-(trifluoromethyl)piperidin-3-yl)methyl)imidazo[1,2-b]pyridazin-2-yl)methyl)-1-methyl-1H-pyrrole-2-carboxamide], the IC50 was 100 to 1000 nM.

On to `O=C(N[C@H](c1cn2nc(CC3C[C@@H](C(F)(F)F)CNC3=O)ccc2n1)C1CCC(F)(F)CC1)c1cnnn1CCF` (stereo partly drawn) [Compound 109, N-((1S)-(4,4-difluorocyclohexyl)(6-(((5R)-2-oxo-5-(trifluoromethyl)piperidin-3-yl)methyl)imidazo[1,2-b]pyridazin-2-yl)methyl)-1-(2-fluoroethyl)-1H-1,2,3-triazole-5-carboxamide], for which the IC50 was 100 to 1000 nM.

On to `CCn1nccc1C(=O)N[C@H](c1cn2nc(CC3CC(F)(F)CNC3=O)c(N(C)C)cc2n1)C1CCC(F)(F)CC1` (single isomer, unassigned) [Compound 87], for which the IC50 was under 100 nM.

For the compound `CCc1nonc1C(=O)N[C@H](c1cn2nc(C[C@H]3C[C@@H](C(F)(F)F)NC3=O)ccc2n1)C1CCC(F)(F)CC1` [Compound 17, N—((S)-(4,4-difluorocyclohexyl)(6-(((3R,5S)-2-oxo-5-(trifluoromethyl)pyrrolidin-3-yl)methyl)imidazo[1,2-b]pyridazin-2-yl)methyl)-4-ethyl-1,2,5-oxadiazole-3-carboxamide], the half-maximal inhibitory concentration (IC50) was 100 to 1000 nM.

On to `CCn1nccc1C(=O)NC(c1cn2nc(CC3C(=O)NCC4CC43)ccc2n1)C1CCC(C)CC1` (single isomer, unassigned) [Compound 48], for which the IC50 was 100 to 1000 nM.

In the case of `O=C(N[C@H](c1cn2nc(CC3C[C@@H](C(F)(F)F)CNC3=O)ccc2n1)C1CCC(F)(F)CC1)c1ccnn1CCF` (stereo partly drawn) [Compound 101, N-((1S)-(4,4-difluorocyclohexyl)(6-(((5R)-2-oxo-5-(trifluoromethyl)piperidin-3-yl)methyl)imidazo[1,2-b]pyridazin-2-yl)methyl)-1-(2-fluoroethyl)-1H-pyrazole-5-carboxamide], the concentration for half-maximal inhibition (IC50) fell in the range of 100 to 1000 nM.

Consider `CCn1nccc1C(=O)N[C@H](c1cn2nc(CC3C[C@@H](C(F)(F)F)CNC3=O)ccc2n1)C1CCCCCC1` (stereo partly drawn) [Compound 169, N—((S)-cycloheptyl(6-(((3R.5R)-2-oxo-5-(trifluoromethyl)piperidin-3-yl)methyl)imidazo[1,2-b]pyridazin-2-yl)methyl)-1-ethyl-1H-pyrazole-5-carboxamide], for which the IC50 fell in the range of 100 to 1000 nM.

In the case of `CCn1nccc1C(=O)N[C@H](c1cn2nc(CC3C[C@H](C(F)(F)F)CNC3=O)c(C)cc2n1)C1CCC(F)(F)CC1` (single isomer, unassigned) [Compound 92], the half-inhibitory concentration (IC50) is under 100 nM.

For `CCN(C)c1cc2nc([C@@H](NC(=O)c3ccnn3CC)C3CCC(F)(F)CC3)cn2nc1CC1C[C@@H](C(F)(F)F)CNC1=O` (single isomer, unassigned) [Compound 89], the IC50 is under 100 nM.

As for `CCn1nccc1C(=O)N[C@H](c1cn2nc(CC3C[C@@H](C(F)(F)F)CNC3=O)ccc2n1)C12CC(C)(C1)C2` (stereo partly drawn) [Compound 178, 1-ethyl-N-((1S)-(3-methylbicyclo[1.1.1]pentan-1-yl)(6-(((5R)-2-oxo-5-(trifluoromethyl)piperidin-3-yl)methyl)imidazo[1,2-b]pyridazin-2-yl)methyl)-1H-pyrazole-5-carboxamide], the IC50 is over 1000 nM.

Regarding `CCn1nccc1C(=O)N[C@H](c1cn2nc(CC3C[C@@H](C(F)(F)F)CNC3=O)c(N(C)CC(F)(F)F)cc2n1)C1CCC(F)(F)CC1` (single isomer, unassigned) [Compound 182], the IC50 fell in the range of 100 to 1000 nM.

`CCn1nccc1C(=O)NC(c1cn2nc(CC3CC(F)(F)CNC3=O)ccc2n1)C1CCCC(F)(F)C1` (mixture of isomers) [Compound 32, N-((6-((5,5-difluoro-2-oxopiperidin-3-yl)methyl)imidazo[1,2-b]pyridazin-2-yl)(3,3-difluorocyclohexyl)methyl)-1-ethyl-1H-pyrazole-5-carboxamide]: the concentration for half-maximal inhibition (IC50) lay within 100 to 1000 nM.

With `CCn1nccc1C(=O)NC(c1cn2nc(CC3C[C@@H](C(F)(F)F)CNC3=O)ccc2n1)C1CCC2CC2CC1` (single isomer, unassigned) [Compound 176], the IC50 was under 100 nM.

Take `CC(C)n1nncc1C(=O)N[C@H](c1cn2nc(CC3C[C@@H](C(F)(F)F)CNC3=O)ccc2n1)[C@H]1CC[C@H](C)CC1` (stereo partly drawn) [Compound 163, N-((1S)-((1R.4S)-4-methylcyclohexyl)(6-(((5R)-2-oxo-5-(trifluoromethyl)piperidin-3-yl)methyl)imidazo[1,2-b]pyridazin-2-yl)methyl)-1-isopropyl-1H-1,2,3-triazole-5-carboxamide]: the IC50 was in the range of 100 to 1000 nM.

For the compound `CC(C)n1nccc1C(=O)N[C@H](c1cn2nc(CC3C[C@H](C(F)(F)F)CNC3=O)ccc2n1)[C@@H]1CCCC(F)(F)C1` (stereo partly drawn) [Compound 160, N-((1S)—((R)-3,3-difluorocyclohexyl)(6-(((5S)-2-oxo-5-(trifluoromethyl)piperidin-3-yl)methyl)imidazo[1,2-b]pyridazin-2-yl)methyl)-1-isopropyl-1H-pyrazole-5-carboxamide], the IC50 is under 100 nM.

As to `O=C(N[C@H](c1cn2nc(CC3C[C@@H](C(F)(F)F)CNC3=O)ccc2n1)C1CCC(F)(F)CC1)c1conc1C1CC1` (stereo partly drawn) [Compound 136, 3-cyclopropyl-N-((1S)-(4,4-difluorocyclohexyl)(6-(((5R)-2-oxo-5-(trifluoromethyl)piperidin-3-yl)methyl)imidazo[1,2-b]pyridazin-2-yl)methyl)isoxazole-4-carboxamide], the IC50 fell in the range of 100 to 1000 nM.

Consider `CCn1nccc1C(=O)N[C@H](c1cn2ncc(CC3C[C@@H](C(F)(F)F)CNC3=O)cc2n1)C(C1CC1)C1CC1` (single isomer, unassigned) [Compound 208], for which the IC50 lay within 100 to 1000 nM.
